Assay results from patent publication US5399696A, “Isoquinolinyl compounds which are intermediates” (Eli Lilly and Company, priority 1993, dated 1995).

Legend:
NMDA receptor [1] = assay: Radioligand binding: displacement of [^3 H]CGS19755 from synaptosomal membranes of rat forebrain (NMDA receptor affinity); conditions: Table I; racemic; [^3 H]CGS19755 10 nM; mean ± standard error (n = 3), values marked ^c single experiment
Description: (§1) The formula I compounds were tested for their ability to inhibit NMDA, AMPA, and kainic acid receptor binding to rat membranes in a radioligand binding assay using [^3 H]CGS19755, [^3 H]AMPA, and [^3 H]KA. For all radioligand binding assays, male Sprague-Dawley rats were used. […] Non-specific binding was determined using 10 μM L-glutamate. Samples were incubated in an ice-bath for 30 minutes, and bound ligand was separated from the free ligand by rapid filtration through WHATMAN GF/B glass fiber filters. Murphy et al, British J. Pharmacol., 95, 932-938 (1988). Kainate binding was performed using washed synaptosomal membranes from the rat forebrain as described by Simon et al. Simon et al, J. Neurochem., 26, 141-147 (1976). Tritiated kainate (5 nM) was added to 50 mM Tris-HCl buffer (pH 7.4 at 4° C.) containing 200-300 μg/ml of tissue protein. Samples were incubated for 30 minutes in an ice-bath, then rapidly filtered using a Brandel cell harvester and WHATMAN GF/C filters. Filters were washed twice with 3 ml of cold buffer. Non-specific binding was determined using 100 μM non-labeled kainate. The binding of [^3 H]AMPA (5 nM) was conducted with crude membranes of rat forebrain in the presence of 100 mM KSCN as described by Nielson et al. Nielson et al, Eur. J. Med. Chem. Chim. Ther., 21, 433-437 (1986). Non-specific binding was determined with 10 μM non-labeled AMPA. The concentration of the formula I compound that inhibited 50% binding (IC50, mean ±standard error, n=3) as calculated by linear regression of displacement data transformed to the Hill equation as described by Bennett. Bennett, Neurotransmitter Receptor Binding, 57-90 (1978).

[2] = molecular target: kainic acid (KA) receptor; assay: Radioligand binding: tritiated kainate binding with washed synaptosomal membranes from the rat forebrain; conditions: Table I; racemic; tritiated kainate 5 nM, pH 7.4; mean ± standard error (n = 3), values marked ^c single experiment
Description: as §1

AMPA receptor [3] = assay: Radioligand binding: [^3 H]AMPA binding with crude membranes of rat forebrain; conditions: racemic
Description: as §1

NMDA receptor [4] = assay: Antagonism of NMDA-induced depolarization of rat cortical wedges; type: cell-based; conditions: Table III; racemic; NMDA 40 μM; mean ± standard error (n = 3); read-out: IC50 NMDA, antagonism of cortical wedge depolarization
Description: (§2) The depolarization of rat cortical wedges was used to test the selectivity and potency of the formula I compounds as AMPA antagonists using a technique similar to that described by Harrison and Simmonds. Harrison and Simmonds, Bri. J. Pharmacol., 84, 381-391 (1984). Generally, 4-ml aliquots of NMDA (40 μM), AMPA (40 μM), and kainate (10 μM) were superfused (2 ml/min.) on the grey matter at intervals of 15-20 minutes until stable responses were attained. The tissue was then exposed for 15 minutes to various concentrations of the formula I compounds before retesting the agonists. The IC50 values were calculated from linear regression of log dose-response curves, each point the mean of at least three observations on separate slices from more than one animal.

[5] = molecular target: kainic acid (KA) receptor; assay: Antagonism of kainate-induced depolarization of rat cortical wedges; type: cell-based; conditions: Table III; racemic; kainate 10 μM; mean ± standard error (n = 3)
Description: as §2

AMPA receptor [6] = assay: Antagonism of AMPA-induced depolarization of rat cortical wedges; type: cell-based; conditions: Table III, racemic; for selective AMPA receptor antagonism (in words): cortical wedge; for IC50: AMPA 40 μM, mean ± standard error (n = 3), read-out: IC50 AMPA, antagonism of cortical wedge depolarization
Description: as §2

[7] = Table I, [^3 H]AMPA 5 nM, 100 mM KSCN, mean ± standard error (n = 3), values marked ^c single experiment, read-out: IC50 AMPA, receptor binding
[8] = text summary of Table I, read-out: selectively displaced ^3 H-AMPA with IC50 values

SMILES | IC50 (NMDA receptor [1]) [µM] | IC50 KA, receptor binding [2] [µM] | IC50 (AMPA receptor [3]; [7]) [µM] | IC50 (NMDA receptor [4]) [µM] | IC50 (AMPA receptor [3]; [8]) [µM] | IC50 KA, antagonism of cortical wedge depolarization [5] [µM] | selective AMPA receptor antagonism (in words) (AMPA receptor [6]) | IC50 (AMPA receptor [6]) [µM]
O=CN(Cc1nnn[nH]1)[C@H]1CC[C@H]2CN[C@H](C(=O)O)C[C@@H]2C1 (racemic) [Compound 3, (3SR,4aRS,6SR,8aRS)-6-[N-(1(2)H-Tetrazole-5-yl)methylformamido]-decahydroisoquinoline-3-carboxylic Acid] | > 100 | > 100 | 29.1 | – | – | – | – | –
O=C(O)[C@@H]1C[C@H]2C[C@@H](CSc3nnn[nH]3)CC[C@H]2CN1 (racemic) [Compound 4, (3SR,4aRS,6SR,8aRS)-6-[2-(1(2)H-Tetrazole-5-yl)-2-thiaethyl]decahydroisoquinoline-3-carboxylic Acid] | 29.4 ± 6.8 | 30.1 ± 1.6 | 0.9 ± 0.14 | > 100 | < 15 | > 100 | selective AMPA receptor antagonists | 3.3 ± 0.9
O=C(O)[C@@H]1C[C@H]2C[C@H](CSc3nnn[nH]3)CC[C@H]2CN1 (racemic) [Compound 5, (3SR,4aRS,6RS,8aRS)-6-[2-(1(2)H-Tetrazole-5-yl)-2-thiaethyl]decahydroisoquinoline-3-carboxylic Acid] | 47.9 ± 3.9 | 37.3 ± 2.3 | 4.9 ± 0.4 | > 100 | < 15 | > 100 | selective AMPA receptor antagonists | 6.1 ± 1.5
O=C(O)[C@@H]1C[C@H]2C[C@@H](CCCc3nnn[nH]3)CC[C@H]2CN1 (racemic) [Compound 6, (3SR,4aRS,6SR,8aRS)-6-[(1(2)H-Tetrazole-5-yl)prop-1-yl]decahydroisoquinoline-3-carboxylic Acid] | 27 ± 9.9 | 18.65 ± 0.33 | 16.8 ± 0.46 | – | – | – | – | 22 ± 3.8
O=C(O)[C@@H]1C[C@H]2C[C@@H](COCc3nnn[nH]3)CC[C@H]2CN1 (racemic) [Compound 7, (3SR,4aRS,6SR,8aRS)-6-[(1(2)H-Tetrazole-5-yl)methoxymethyl]decahydroisoquinoline-3-carboxylic Acid] | > 10 | > 10 | > 10 | > 100 | – | > 100 | – | 16 ± 1.4
O=C(O)[C@@H]1C[C@H]2C[C@H](CCSc3nnn[nH]3)CC[C@H]2CN1 (racemic) [Compound 8, (3SR,4aRS,6RS,8aRS)-6-[3-(1(2)H-Tetrazole-5-yl)-3-thiaprop-1-yl]decahydroisoquinoline-3-carboxylic Acid] | 49.2 ± 1.86 | 28.76 ± 2.21 | 10.6 ± 2 | > 100 | – | 18.1 ± 5.1 | – | 6.8 ± 1.5
O=C(O)[C@@H]1C[C@H]2C[C@@H](CCSc3nnn[nH]3)CC[C@H]2CN1 (racemic) [Compound 9, (3SR,4aRS,6SR,8aRS)-6-[3-(1(2)H-Tetrazole-5-yl)-3-thiaprop-1-yl]decahydroisoquinoline-3-carboxylic Acid] | > 100 | > 100 | 56.2 ± 4.6 | > 100 | – | > 100 | – | 32.2 ± 1.7
O=C(O)[C@@H]1C[C@H]2C[C@@H](CCCCc3nnn[nH]3)CC[C@H]2CN1 (racemic) [Compound 10, (3SR,4aRS,6SR,8aRS)-6-[(1(2)H-Tetrazole-5-yl)but-1-yl]decahydroisoquinoline-3-carboxylic Acid] | > 100 | > 100 | 32 | > 100 | – | – | – | 27.6 ± 3.1
